Values quoted from earlier work as cited in US20060292651A1, “Protein labelling with oº-alkylguanine-dna alkyltrnsferase” (priority 2002, published 2006).

Biological target: T1, hAGT (Homo sapiens, UniProt P16455)
T1 sequence (P16455 1-207): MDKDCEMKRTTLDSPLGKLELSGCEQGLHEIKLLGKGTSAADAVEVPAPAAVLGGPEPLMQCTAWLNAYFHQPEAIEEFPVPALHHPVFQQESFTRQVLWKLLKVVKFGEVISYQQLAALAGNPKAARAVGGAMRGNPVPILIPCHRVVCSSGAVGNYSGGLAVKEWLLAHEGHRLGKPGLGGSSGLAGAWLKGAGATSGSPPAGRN
Settings: reaction with hAGT

## Nc1nc(OCc2ccccc2)c2nc[nH]c2n1 [O^6-benzyl-guanine]
  second order rate constant: approximately 10^3 sec^−1 M^−1
